Assay results from the supplement of paper PMC9663587.

Assays:
[1] = compound: CC(=O)c1c(C)c2cnc(Nc3ccc(N4CCNCC4)cn3)nc2n(C2CCCC2)c1=O; test: increase in dead-cell fraction, 72 h; higher = more death;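 note: breast cancer cell lines in 384-well plates, stained with Hoechst plus LIVE/DEAD far red dye and imaged, cells above an LDR intensity threshold counted dead, Hoechst-negative corpses included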
THZ1 [2] = compound: T1, CN(C)C/C=C/C(=O)Nc1ccc(C(=O)Nc2cccc(Nc3ncc(Cl)c(-c4c[nH]c5ccccc45)n3)c2)cc1 [THZ1]; test: as above
YKL-5-124 = compound: C=CC(=O)Nc1ccc(C(=O)Nc2[nH]nc3c2CN(C(=O)N[C@H](CN(C)C)c2ccccc2)C3(C)C)cc1 [YKL-5-124]; test: as above
Flavopiridol = compound: CN1CC[C@H](c2c(O)cc(O)c3c(=O)cc(-c4ccccc4Cl)oc23)[C@H](O)C1 [Flavopiridol]; test: as above
[3] = compound: CCN1CCN(Cc2ccc(Nc3ncc(F)c(-c4cc(F)c5nc(C)n(C(C)C)c5c4)n3)nc2)CC1; test: as above
BSJ-03-123 = compound: CC(=O)c1c(C)c2cnc(Nc3ccc(N4CCN(CCOCCOCCOCCNC(=O)COc5cccc6c5C(=O)N(C5CCC(=O)NC5=O)C6=O)CC4)cn3)nc2n(C2CCCC2)c1=O [BSJ-03-123]; test: as above
THZ531 = compound: CN(C)C/C=C/C(=O)Nc1ccc(C(=O)N2CCC[C@@H](Nc3ncc(Cl)c(-c4c[nH]c5ccccc45)n3)C2)cc1 [THZ531]; test: as above
[4] = compound: CCc1cnn2c(NCc3ccc[n+]([O-])c3)cc(N3CCCC[C@H]3CCO)nc12; test: as above
LEE011/Ribociclib = compound: CN(C)C(=O)c1cc2cnc(Nc3ccc(N4CCNCC4)cn3)nc2n1C1CCCC1 [LEE011/Ribociclib]; test: as above
Neratinib/HKI272 [5] = compound: T2, CCOc1cc2ncc(C#N)c(Nc3ccc(OCc4ccccn4)c(Cl)c3)c2cc1NC(=O)/C=C/CN(C)C [Neratinib/HKI272]; test: as above
THZ1 [6] = compound: T1, THZ1; test: GR value, 72 h; higher = faster growth (1 = untreated, <0 = killing);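 note: breast cancer and non-malignant breast epithelial lines, nine half-log doses, viable cells counted by Hoechst and LIVE/DEAD dye imaging versus time-zero plates and DMSO controls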
Neratinib/HKI272 [7] = compound: T2, Neratinib/HKI272; test: as above

HCC70
increase in dead-cell fraction ([1]; 0.0003162 µM): -0.0042
increase in dead-cell fraction ([1]; 0.001 µM): 0.0102
increase in dead-cell fraction ([1]; 0.003162 µM): -0.0045
increase in dead-cell fraction ([1]; 0.01 µM): 0.0054
increase in dead-cell fraction ([1]; 0.03162 µM): -0.0062
increase in dead-cell fraction ([1]; 0.1 µM): 0.012
increase in dead-cell fraction ([1]; 0.3162 µM): -0.0151
increase in dead-cell fraction ([1]; 1 µM): -0.0002
increase in dead-cell fraction ([1]; 3.162 µM): -0.0047
increase in dead-cell fraction (THZ1 [2]; 0.0001 µM): 0.0011
increase in dead-cell fraction (THZ1 [2]; 0.0003162 µM): 0.0017
increase in dead-cell fraction (THZ1 [2]; 0.001 µM): -0.0087
increase in dead-cell fraction (THZ1 [2]; 0.003162 µM): 0.0017
increase in dead-cell fraction (THZ1 [2]; 0.01 µM): 0.0017
increase in dead-cell fraction (THZ1 [2]; 0.03162 µM): 0.227
increase in dead-cell fraction (THZ1 [2]; 0.1 µM): 0.676
increase in dead-cell fraction (THZ1 [2]; 0.3162 µM): 0.872
increase in dead-cell fraction (THZ1 [2]; 1 µM): 0.868
increase in dead-cell fraction (YKL-5-124; 0.001 µM): 0.0881
increase in dead-cell fraction (YKL-5-124; 0.003162 µM): 0.0945
increase in dead-cell fraction (YKL-5-124; 0.01 µM): 0.148
increase in dead-cell fraction (YKL-5-124; 0.03162 µM): 0.205
increase in dead-cell fraction (YKL-5-124; 0.1 µM): 0.254
increase in dead-cell fraction (YKL-5-124; 0.3162 µM): 0.285
increase in dead-cell fraction (YKL-5-124; 1 µM): 0.376
increase in dead-cell fraction (YKL-5-124; 3.162 µM): 0.41
increase in dead-cell fraction (YKL-5-124; 10 µM): 0.726
increase in dead-cell fraction (Flavopiridol; 0.0001 µM): -0.003
increase in dead-cell fraction (Flavopiridol; 0.0003162 µM): -0.0033
increase in dead-cell fraction (Flavopiridol; 0.001 µM): -0.0119
increase in dead-cell fraction (Flavopiridol; 0.003162 µM): -0.0038
increase in dead-cell fraction (Flavopiridol; 0.01 µM): 0.0008
increase in dead-cell fraction (Flavopiridol; 0.03162 µM): 0.009
increase in dead-cell fraction (Flavopiridol; 0.1 µM): 0.0351
increase in dead-cell fraction (Flavopiridol; 0.3162 µM): 0.487
increase in dead-cell fraction (Flavopiridol; 1 µM): 0.401
increase in dead-cell fraction ([3]; 0.001 µM): 0.0027
increase in dead-cell fraction ([3]; 0.003162 µM): -0.0178
increase in dead-cell fraction ([3]; 0.01 µM): -0.0021
increase in dead-cell fraction ([3]; 0.03162 µM): -0.0067
increase in dead-cell fraction ([3]; 0.1 µM): -0.0175
increase in dead-cell fraction ([3]; 0.3162 µM): -0.0179
increase in dead-cell fraction ([3]; 1 µM): -0.0058
increase in dead-cell fraction ([3]; 3.162 µM): 0.169
increase in dead-cell fraction ([3]; 10 µM): 0.639
increase in dead-cell fraction (BSJ-03-123; 0.001 µM): -0.0022
increase in dead-cell fraction (BSJ-03-123; 0.003162 µM): -0.0076
increase in dead-cell fraction (BSJ-03-123; 0.01 µM): -0.0082
increase in dead-cell fraction (BSJ-03-123; 0.03162 µM): -0.0024
increase in dead-cell fraction (BSJ-03-123; 0.1 µM): 0.0042
increase in dead-cell fraction (BSJ-03-123; 0.3162 µM): -0.0019
increase in dead-cell fraction (BSJ-03-123; 1 µM): -0.0038
increase in dead-cell fraction (BSJ-03-123; 3.162 µM): 0.0046
increase in dead-cell fraction (BSJ-03-123; 10 µM): 0.317
increase in dead-cell fraction (THZ531; 0.0001 µM): -0.0083
increase in dead-cell fraction (THZ531; 0.0003162 µM): 0.004
increase in dead-cell fraction (THZ531; 0.001 µM): -0.0113
increase in dead-cell fraction (THZ531; 0.003162 µM): -0.0062
increase in dead-cell fraction (THZ531; 0.01 µM): -0.0005
increase in dead-cell fraction (THZ531; 0.03162 µM): 0.0092
increase in dead-cell fraction (THZ531; 0.1 µM): 0.227
increase in dead-cell fraction (THZ531; 0.3162 µM): 0.623
increase in dead-cell fraction (THZ531; 1 µM): 0.805
increase in dead-cell fraction ([4]; 0.0001 µM): 0.0046
increase in dead-cell fraction ([4]; 0.0003162 µM): 0.0037
increase in dead-cell fraction ([4]; 0.001 µM): -0.003
increase in dead-cell fraction ([4]; 0.003162 µM): -0.0058
increase in dead-cell fraction ([4]; 0.01 µM): 0.0306
increase in dead-cell fraction ([4]; 0.03162 µM): 0.699
increase in dead-cell fraction ([4]; 0.1 µM): 0.734
increase in dead-cell fraction ([4]; 0.3162 µM): 0.721
increase in dead-cell fraction ([4]; 1 µM): 0.74
increase in dead-cell fraction (LEE011/Ribociclib; 0.001 µM): -0.0029
increase in dead-cell fraction (LEE011/Ribociclib; 0.003162 µM): 0.0024
increase in dead-cell fraction (LEE011/Ribociclib; 0.01 µM): -0.0096
increase in dead-cell fraction (LEE011/Ribociclib; 0.03162 µM): -0.0087
increase in dead-cell fraction (LEE011/Ribociclib; 0.1 µM): -0.0125
increase in dead-cell fraction (LEE011/Ribociclib; 0.3162 µM): -0.0098
increase in dead-cell fraction (LEE011/Ribociclib; 1 µM): -0.0021
increase in dead-cell fraction (LEE011/Ribociclib; 3.162 µM): -0.0069
increase in dead-cell fraction (LEE011/Ribociclib; 10 µM): -0.0152
increase in dead-cell fraction (Neratinib/HKI272 [5]; 0.0003162 µM): 0.0098
increase in dead-cell fraction (Neratinib/HKI272 [5]; 0.001 µM): 0.0142
increase in dead-cell fraction (Neratinib/HKI272 [5]; 0.003162 µM): 0.015
increase in dead-cell fraction (Neratinib/HKI272 [5]; 0.01 µM): 0.0157
increase in dead-cell fraction (Neratinib/HKI272 [5]; 0.03162 µM): 0.0249
increase in dead-cell fraction (Neratinib/HKI272 [5]; 0.1 µM): 0.0312
increase in dead-cell fraction (Neratinib/HKI272 [5]; 0.3162 µM): 0.0482
increase in dead-cell fraction (Neratinib/HKI272 [5]; 1 µM): 0.0703
increase in dead-cell fraction (Neratinib/HKI272 [5]; 3.162 µM): 0.147
GR value (THZ1 [6]; 0.0001 µM): 0.985 GR
GR value (THZ1 [6]; 0.0003162 µM): 1.01 GR
GR value (THZ1 [6]; 0.001 µM): 1.04 GR
GR value (THZ1 [6]; 0.003162 µM): 1.02 GR
GR value (THZ1 [6]; 0.01 µM): 0.707 GR
GR value (THZ1 [6]; 0.03162 µM): -0.291 GR
GR value (THZ1 [6]; 0.1 µM): -0.838 GR
GR value (THZ1 [6]; 0.3162 µM): -0.936 GR
GR value (THZ1 [6]; 1 µM): -0.944 GR
GR value (Neratinib/HKI272 [7]; 0.0003162 µM): 1.04 GR
GR value (Neratinib/HKI272 [7]; 0.001 µM): 0.943 GR
GR value (Neratinib/HKI272 [7]; 0.003162 µM): 1.02 GR
GR value (Neratinib/HKI272 [7]; 0.01 µM): 0.986 GR
GR value (Neratinib/HKI272 [7]; 0.03162 µM): 0.79 GR
GR value (Neratinib/HKI272 [7]; 0.1 µM): 0.621 GR
GR value (Neratinib/HKI272 [7]; 0.3162 µM): 0.377 GR
GR value (Neratinib/HKI272 [7]; 1 µM): 0.128 GR
GR value (Neratinib/HKI272 [7]; 3.162 µM): 0.0733 GR
